Entries after “also recorded” stand apart in the source; their conditions may differ.
What was measured:
[1] = test system: mice subjected to chronic restraint stress (CRS); assay: Y-maze alternation task, chronic restraint stress (CRS) mice; format: in vivo, mouse; conditions: for effect on CRS-induced working memory deficit (percent alternation rate, Y-maze): 10 mg/kg i.p. 30 min before testing; for Alternation rate (%): Dose 10 mg/kg
Method: C57/B16 mice, males and females were ordered from Jackson Laboratories at 8 weeks old and were kept in normal housing conditions (12 h light ON cycle starting at 7 am/water and food ad libitum) for one week. During this week, animals were single housed and handled to reduce the anxiety-like response toward the experimenter. To induce a working memory deficit, mice were subjected to a chronic restraint stress protocol (CRS). They were placed in a 50 ml Falcon® tube, twice a day, for 1 hour during their diurnal cycle. The time of occurrence of the stress was randomized every day to avoid predictability. CRS was not applied on testing days. Y-maze test occurred 15 hours minimum after the last stressor.
Mice were first habituated to the Y-maze apparatus and distal cues during 2 consecutive days over a 10 min free exploration session (one session per day). The next day, animals performed a training session consisting in seven successive trials separated by a 30 s inter-trial interval (ITI); during this training session, mice were familiarized with the experimental procedure (opening and closing of the doors and confinement into the goal arms). For each trial, mice remained in the start-box for a 30 s ITI. Then, the door was opened and the mouse was allowed to enter freely one of the two goal arms; the chosen arm was closed and the choice was recorded. After a 30 s confinement period into the chosen arm, the mouse was removed and brought back to the start-box for a second trial identical to the first one and this procedure was repeated over the series of trials.
The same general procedure used in the training session was implemented 24 h later, except that the ITI was lengthened to 90 s. For this experiment, animals were acutely injected i.p. with vehicle or αPAM, 30 minutes before the beginning of the test. To dissociate memory deficits from an eventual progressive loss of motivation to alternate over the series, an 8th trial was added to the series which was separated from the 7th trial by a shorter ITI (5 s). All animals failing to alternate at the 8th trial were excluded. The mean alternation rate was calculated and was expressed in percentage (number of alternation done by the animal/total number of alternation possible×100)±SEM. The percentage of alternation during the entire task is considered as an index of working memory performance (50% of being a random alternation rate). Factorial ANOVA was applied to the data to reveal differences between groups. If the ANOVA was significant for group effect (p<0.05), Scheffe post-hoc analysis were conducted to identify which groups are different from each other.
All drugs were diluted in a vehicle solution containing 85% H2O, 14% propylene glycol (Sigma Aldrich) and 1% Tween 80 (Sigma Aldrich). Working solutions were prepared at a concentration of 10 mg/mL and administered i.p. adjusted to the body weight of each animal. Doses used were either 1, 5, 10 or 20 mg/kg. For all Y maze experiments, animals were acutely injected i.p. with vehicle or αPAM, 30 minutes before the beginning of the test.

[2] = test system: Female Swiss Webster mice; assay: Rotarod sensorimotor / locomotor coordination; format: in vivo, mouse; conditions: 40 mg/kg oral gavage; 15 rpm, 3 min; 10, 30, 60 min after dosing
Method: Female Swiss Webster mice (10 weeks of age) from Charles River Laboratory, WIL, MA were used for the experiments. The animals were housed under specific pathogen-free conditions, under standard conditions of humidity, temperature and a controlled 12 h light and dark cycle and had free access to food and water. The sensorimotor rotarod test was carried out 10, 30 and 60 minutes after the injection. Mice were tested on a rotarod at 15 rpm for maximum 3 min and the time of fall was recorded. Falling before the 3 minutes period of testing assesses of locomotor coordination impairment induced by the compound.
Mice (N=10/group) received a single administration via oral gavage of test compound (40 mg/kg), diazepam (5 mg/kg), or vehicle (2% polyethylene glycol, 2.5% hydroxypropylmethyl cellulose solution).

[3] = Human liver microsome stability assay; format: in vitro ADME; conditions: 10 μM compound; for half-life at 10 μM: human, liver microsomes, read-out: Half-life (min) (HumanLM)
Method: (§1) Human and mouse liver microsomes were obtained fom BD Gentest.
(§2) Each evaluation included six independent assays carried out three at a time, on two different days
(§3) 2. For a total volume of Microsomal Assay Mixture (MAM) 390 μL, sufficient for seven time points, combine the following
(§4) 3. Sonicate MAM for 5 min and meanwhile thaw microsomes (20 mg/mL) (BD Gentest, Cat #452156) on ice.
(§5) 4. Aliquot 100 μL of ice cold ISTD into 7 separate 1.5 mL conical vials and label them the time points for 0, 10, 20, 40, 60, 90, and 120 min.
(§6) 5. Arrange the timer. Microsomes (Final concentration of 0.5 mg/mL) should be added to all time points except the zero time point.
(§7) 6. Add 50 μL of the MAM solution to the conical vial labelled as zero time point. Place the remaining MAM solution in the incubator (37° C.) for 5 min and initiate the reaction with addition of microsomes (8.8 μL) and record the time.
(§8) 7. At the end of each time interval remove 50 μL and add 100 μL to ISTD in conical vial, sonicate for 10 sec and spin down at 10,000 rpm for 5 minutes.
(§9) 8. Take 100 μL of supernatant and transfer to Spin-X HPLC filter tubes (Corning Incorporated, Cat #8169) and centrifuge at 13,000 rpm for 5 minutes and take 5 μL from this solution and dilute in 495 μL of LCMS grade methanol (Fischer scientific, CAS #67-56-1) in an 2 mL glass auto sampler vial (Microsolv, Cat #95025-WCV) 9. The samples are analyzed by LCMS-8040. (Shimadzu)
(§10) Calculation: From the peak area, calculate the following
(§11) The compounds are tested for the metabolic stability in the Human and Mouse Liver microsomes at 10 μM concentration.

[4] = Mouse liver microsome stability assay; format: in vitro ADME; conditions: 10 μM compound; for half-life at 10 μM: mouse, liver microsomes, read-out: Half-life (min) (MouseLM)
Method: as §1, §2, §3, §4, §5, §6, §7, §8, §9, §10, §11

[5] = Pharmacokinetics in mice (plasma, liver, brain); conditions: i.p. dosing at 3 mg/kg
HEK293 = assay: Cytotoxicity assay (CellTiter-Glo), HEK293; format: cell-based, human; conditions: 48 hours incubation
Method: (§12) Human liver hepatocellular carcinoma (HEPG2) and human embryonic kidney 293 (HEK293) cell lines were purchased (ATCC) and cultured in 75 cm2 flasks (CellStar). Cells were grown in DMEM/High Glucose (Hyclone, #SH3024301) media to which non-essential amino acids (Hyclone, #SH30238.01), 10 mM HEPES (Hyclone, #SH302237.01), 5×106 units of penicillin and streptomycin (Hyclone, #SV30010), and 10% of heat inactivated fetal bovine serum (Gibco, #10082147) were added. Cells were harvested using 0.05% Trypsin (Hyclone, #SH3023601), washed with PBS, and dispensed into sterile white, optical bottom 384-well plates (NUNC, #142762). After three hours, small molecule solutions were transferred with a Tecan Freedom EVO liquid handling system equipped with a 100 nL pin tool (V&P Scientific). The controls (E)-10-(bromotriphenylphosphoranyl)decyl 4-(4-(tert-butyl)phenyl)-4-oxobut-2-enoate (400 μM in DMSO, positive control) and DMSO (negative control). The cells were incubated for 48 hours followed by the addition of CellTiter-Glo™, a luminescence-based cell viability assay (Promega, Madison, Wis.). All luminescence readings were performed on a Tecan Infinite M1000 plate reader. The assay was carried out in quadruplet with three independent runs. The data was normalized to the controls and analyzed by nonlinear regression (GraphPad Prism).

HEPG2 = assay: Cytotoxicity assay (CellTiter-Glo), HEPG2; format: cell-based, human; conditions: 48 hours incubation
Method: as §12

SMILES	effect on CRS-induced working memory deficit (percent alternation rate, Y-maze) [1]	sensorimotor impairment on rotarod (time of fall) [2]	Half-life (min) (HumanLM) [3]	% left after 2 hr. (Human LM) [3]	Half-life (min) (MouseLM) [4]	% left after 2 hr. (MouseLM) [4]	molar concentration range reached in mouse brain tissue [5]	half-life at 10 μM [3]	half-life at 10 μM [4]	HEK293 LD50 (HEK293)	HEPG2 LD50 (HEPG2)	Alternation rate (%) [1]
C#Cc1ccc2c(c1)C(c1ccccc1F)=N[C@@H](C)c1c(-c3nc(C)no3)ncn1-2 [GL-I-65, (S)-5-(8-ethynyl-6-(2-fluorophenyl)-4-methyl-4H-benzo[f]imidazo[1,5-a][1,4]diazepin-3-yl)-3-methyl-1,2,4-oxadiazole]	significant reversal of CRS-induced impairment in working memory; also recorded: increase in alternation rate	no sensorimotor impairment	866 ± 213 min	86.4 ± 0.3%	443 ± 67 min	81.0 ± 0.4%	moderate to high submicromolar concentrations	–	–	–	–	–
C#Cc1ccc2c(c1)C(c1ccccn1)=N[C@H](C)c1c(-c3nc(C)no3)ncn1-2 [GL-II-33, (R)-5-(8-ethynyl-4-methyl-6-(pyridin-2-yl)-4H-benzo[f]imidazo[1,5-a][1,4]diazepin-3-yl)-3-methyl-1,2,4-oxadiazole]	a trend in the reversal of CRS-induced impairment in working memory; also recorded: a trend was detected	no sensorimotor impairment	–	–	–	82.0 ± 0.3%	moderate to high submicromolar concentrations	2590 ± 1110 min	500 ± 66 min	>400 µM	>400 µM	–
C#Cc1ccc2c(c1)C(c1ccccn1)=N[C@H](C)c1c(C(=O)NC)ncn1-2 [GL-II-31, (R)-8-ethynyl-N,4-dimethyl-6-(pyridin-2-yl)-4H-benzo[f]imidazo[1,5-a][1,4]diazepine-3-carboxamide]	–	no sensorimotor impairment	–	–	–	–	moderate to high submicromolar concentrations	1870 ± 765 min	1840 ± 590 min	>400 µM	>400 µM	56.6%
C#Cc1ccc2c(c1)C(c1ccccc1F)=NCc1c(-c3nc(C)no3)ncn1-2 [GL-III-23, 5-(8-ethynyl-6-(2-fluorophenyl)-4H-benzo[f]imidazo[1,5-a][1,4]diazepin-3-yl)-3-methyl-1,2,4-oxadiazole]	–	–	–	82.0 ± 0.3%	–	–	micromolar concentrations	504 ± 77 min	1320 ± 316 min	>100 µM	>100 µM	56.6%

— patent US10906909B2, “Treatment of cognitive and mood symptoms in neurodegenerative and neuropsychiatric disorders with ALPHA5-containing GABAA receptor agonists” (UWM Research Foundation, Inc., priority 2016, dated 2021)
